Assay results from ChEMBL document CHEMBL3885881, “DrugMatrix”.

Organism: Rattus norvegicus
Assay: DrugMatrix - Regimen: Daily Repeat
Format: toxicity, organism-based, Sprague-Dawley
Parameters: regimen Daily Repeat, gender Male, age 6-8 weeks
Settings: in vivo, po, route oral GAVAGE, vehicle .5 % CMC; for ABSOLUTE BASOPHIL / ABSOLUTE EOSINOPHIL / ABSOLUTE LYMPHOCYTE / ABSOLUTE MONOCYTE / ABSOLUTE SEGMENTED NEUTROPHIL / BASOPHIL / EOSINOPHIL / ERYTHROCYTE COUNT / HEMATOCRIT / HEMOGLOBIN / LEUKOCYTE COUNT / LYMPHOCYTE / MEAN CORPUSCULAR HEMOGLOBIN / MEAN CORPUSCULAR HEMOGLOBIN CONCENTRATION / MEAN CORPUSCULAR VOLUME / MONOCYTE / NEUTROPHIL / NUCLEATED RED BLOOD CELLS / PLATELET COUNT: tissue Blood; for ALANINE AMINOTRANSFERASE / ALBUMIN / ALKALINE PHOSPHATASE / ASPARTATE AMINOTRANSFERASE / BLOOD UREA NITROGEN / CARBON DIOXIDE / CHLORIDE / CHOLESTEROL / CREATINE PHOSPHOKINASE / CREATININE / GLUCOSE / LACTATE DEHYDROGENASE / LIPASE / PHOSPHORUS / POTASSIUM / SODIUM / TOTAL BILIRUBIN / TOTAL PROTEIN / URIC ACID: tissue Plasma
[1] = 20 mg/kg, 120 h, dose level Low, time 5 day
[2] = 1500 mg/kg, 72 h, dose level High, time 3 day
[3] = 1500 mg/kg, 120 h, dose level High, time 5 day

CC(C)(C)NC(=O)[C@@H]1C[C@@H]2CCCC[C@@H]2CN1C[C@@H](O)[C@H](Cc1ccccc1)NC(=O)[C@H](CC(N)=O)NC(=O)c1ccc2ccccc2n1
ABSOLUTE BASOPHIL [1]: 0 CELLS/uL | ABSOLUTE EOSINOPHIL [1]: 247 CELLS/uL | ABSOLUTE LYMPHOCYTE [1]: 11820.33 CELLS/uL | ABSOLUTE MONOCYTE [1]: 0 CELLS/uL | ABSOLUTE SEGMENTED NEUTROPHIL [1]: 1032.67 CELLS/uL | BASOPHIL [1]: 0% | EOSINOPHIL [1]: 2% | ERYTHROCYTE COUNT [1]: 5.22 x10E6/uL | HEMATOCRIT [1]: 32.83% | HEMOGLOBIN [1]: 12.53 G/DL | LEUKOCYTE COUNT [1]: 13.1 x10E3/uL | LYMPHOCYTE [1]: 90.33% | MEAN CORPUSCULAR HEMOGLOBIN [1]: 24.03 pg | MEAN CORPUSCULAR HEMOGLOBIN CONCENTRATION [1]: 38.2 G/DL | MEAN CORPUSCULAR VOLUME [1]: 63.03 fL | MONOCYTE [1]: 0% | NEUTROPHIL [1]: 7.67% | NUCLEATED RED BLOOD CELLS [1]: 0 /100WBC | PLATELET COUNT [1]: 1193.67 x10E3/uL | ALANINE AMINOTRANSFERASE [1]: 53.33 u/L | ALBUMIN [1]: 4.33 G/DL | ALKALINE PHOSPHATASE [1]: 341.67 u/L | ASPARTATE AMINOTRANSFERASE [1]: 80.67 u/L | BLOOD UREA NITROGEN [1]: 18 mg/dL | CARBON DIOXIDE [1]: 25.33 mmol/L | CHLORIDE [1]: 102.67 MEQ/L | CHOLESTEROL [1]: 79.33 mg/dL | CREATINE PHOSPHOKINASE [1]: 166.33 u/L | CREATININE [1]: 0.19 mg/dL | GLUCOSE [1]: 146.67 mg/dL | LACTATE DEHYDROGENASE [1]: 98.33 u/L | LIPASE [1]: 8.67 u/L | PHOSPHORUS [1]: 11.57 mg/dL | POTASSIUM [1]: 5.98 MEQ/L | SODIUM [1]: 144.17 MEQ/L | TOTAL BILIRUBIN [1]: 0.17 mg/dL | TOTAL PROTEIN [1]: 6.37 G/DL | URIC ACID [1]: 1.27 mg/dL | ABSOLUTE BASOPHIL [2]: 0 CELLS/uL | ABSOLUTE EOSINOPHIL [2]: 137.33 CELLS/uL | ABSOLUTE LYMPHOCYTE [2]: 12869.33 CELLS/uL | ABSOLUTE MONOCYTE [2]: 0 CELLS/uL | ABSOLUTE SEGMENTED NEUTROPHIL [2]: 1126.67 CELLS/uL | BASOPHIL [2]: 0% | EOSINOPHIL [2]: 1% | ERYTHROCYTE COUNT [2]: 6.18 x10E6/uL | HEMATOCRIT [2]: 38.67% | HEMOGLOBIN [2]: 14.47 G/DL | LEUKOCYTE COUNT [2]: 14.13 x10E3/uL | LYMPHOCYTE [2]: 91% | MEAN CORPUSCULAR HEMOGLOBIN [2]: 23.47 pg | MEAN CORPUSCULAR HEMOGLOBIN CONCENTRATION [2]: 37.4 G/DL | MEAN CORPUSCULAR VOLUME [2]: 62.63 fL | MONOCYTE [2]: 0% | NEUTROPHIL [2]: 8% | NUCLEATED RED BLOOD CELLS [2]: 0 /100WBC | PLATELET COUNT [2]: 1247.33 x10E3/uL | ALANINE AMINOTRANSFERASE [2]: 48.67 u/L | ALBUMIN [2]: 4.4 G/DL | ALKALINE PHOSPHATASE [2]: 408 u/L | ASPARTATE AMINOTRANSFERASE [2]: 76.67 u/L | BLOOD UREA NITROGEN [2]: 14 mg/dL | CARBON DIOXIDE [2]: 26.67 mmol/L | CHLORIDE [2]: 99.67 MEQ/L | CHOLESTEROL [2]: 80 mg/dL | CREATINE PHOSPHOKINASE [2]: 218.33 u/L | CREATININE [2]: 0.15 mg/dL | GLUCOSE [2]: 162 mg/dL | LACTATE DEHYDROGENASE [2]: 94.33 u/L | LIPASE [2]: 8.67 u/L | PHOSPHORUS [2]: 12.5 mg/dL | POTASSIUM [2]: 6.95 MEQ/L | SODIUM [2]: 144.6 MEQ/L | TOTAL BILIRUBIN [2]: 0.17 mg/dL | TOTAL PROTEIN [2]: 6.17 G/DL | URIC ACID [2]: 1.83 mg/dL | ABSOLUTE BASOPHIL [3]: 0 CELLS/uL | ABSOLUTE EOSINOPHIL [3]: 190 CELLS/uL | ABSOLUTE LYMPHOCYTE [3]: 12822 CELLS/uL | ABSOLUTE MONOCYTE [3]: 0 CELLS/uL | ABSOLUTE SEGMENTED NEUTROPHIL [3]: 1388 CELLS/uL | BASOPHIL [3]: 0% | EOSINOPHIL [3]: 1.33% | ERYTHROCYTE COUNT [3]: 5.33 x10E6/uL | HEMATOCRIT [3]: 33.83% | HEMOGLOBIN [3]: 13.1 G/DL | LEUKOCYTE COUNT [3]: 14.4 x10E3/uL | LYMPHOCYTE [3]: 89.33% | MEAN CORPUSCULAR HEMOGLOBIN [3]: 24.63 pg | MEAN CORPUSCULAR HEMOGLOBIN CONCENTRATION [3]: 38.73 G/DL | MEAN CORPUSCULAR VOLUME [3]: 63.53 fL | MONOCYTE [3]: 0% | NEUTROPHIL [3]: 9.33% | NUCLEATED RED BLOOD CELLS [3]: 0 /100WBC | PLATELET COUNT [3]: 1411.67 x10E3/uL | ALANINE AMINOTRANSFERASE [3]: 48 u/L | ALBUMIN [3]: 4.4 G/DL | ALKALINE PHOSPHATASE [3]: 396.33 u/L | ASPARTATE AMINOTRANSFERASE [3]: 69 u/L | BLOOD UREA NITROGEN [3]: 15.67 mg/dL | CARBON DIOXIDE [3]: 25.67 mmol/L | CHLORIDE [3]: 103.33 MEQ/L | CHOLESTEROL [3]: 71.67 mg/dL | CREATINE PHOSPHOKINASE [3]: 233.33 u/L | CREATININE [3]: 0.17 mg/dL | GLUCOSE [3]: 169 mg/dL | LACTATE DEHYDROGENASE [3]: 123.33 u/L | LIPASE [3]: 8.33 u/L | PHOSPHORUS [3]: 12.8 mg/dL | POTASSIUM [3]: 6.57 MEQ/L | SODIUM [3]: 145.83 MEQ/L | TOTAL BILIRUBIN [3]: 0.23 mg/dL | TOTAL PROTEIN [3]: 6.23 G/DL | URIC ACID [3]: 1.7 mg/dL
